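Each compound was tested at five concentrations against cells in 96-well plates for 48 hours. TGI is the concentration that stops growth completely.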
Legend:
Experiment in all cases: NCI anticancer screen, dose series, 48 h
SN12C renal = tested on: SN12C renal
HL-60(TB) leukemia = tested on: HL-60(TB) leukemia
HCC-2998 colon = tested on: HCC-2998 colon
SR leukemia = tested on: SR leukemia
786-0 renal = tested on: 786-0 renal
MALME-3M melanoma = tested on: MALME-3M melanoma
K-562 leukemia = tested on: K-562 leukemia
DLD-1 colon = tested on: DLD-1 colon
SNB-75 CNS = tested on: SNB-75 CNS
M14 melanoma = tested on: M14 melanoma
ACHN renal = tested on: ACHN renal
IGROV1 ovarian = tested on: IGROV1 ovarian
SW-620 colon = tested on: SW-620 colon
COLO 205 colon = tested on: COLO 205 colon
SF-268 CNS = tested on: SF-268 CNS
NCI-H522 lung = tested on: NCI-H522 lung
OVCAR-5 ovarian = tested on: OVCAR-5 ovarian
A498 renal = tested on: A498 renal
EKVX NSCLC = tested on: EKVX NSCLC
CAKI-1 renal = tested on: CAKI-1 renal
NCI-H460 lung = tested on: NCI-H460 lung
OVCAR-3 ovarian = tested on: OVCAR-3 ovarian
CCRF-CEM leukemia = tested on: CCRF-CEM leukemia
DMS 273 small cell lung = tested on: DMS 273 small cell lung
SK-MEL-2 melanoma = tested on: SK-MEL-2 melanoma
SNB-78 CNS = tested on: SNB-78 CNS
SK-MEL-5 melanoma = tested on: SK-MEL-5 melanoma
HOP-18 NSCLC = tested on: HOP-18 NSCLC
KM12 colon = tested on: KM12 colon
SF-295 CNS = tested on: SF-295 CNS
SNB-19 CNS = tested on: SNB-19 CNS
NCI-H226 lung = tested on: NCI-H226 lung
OVCAR-8 ovarian = tested on: OVCAR-8 ovarian
HCT-15 colon = tested on: HCT-15 colon
SK-OV-3 ovarian = tested on: SK-OV-3 ovarian
UACC-62 melanoma = tested on: UACC-62 melanoma
SK-MEL-28 melanoma = tested on: SK-MEL-28 melanoma
U251 CNS = tested on: U251 CNS
UO-31 renal = tested on: UO-31 renal
M19-MEL melanoma = tested on: M19-MEL melanoma
HT29 colon = tested on: HT29 colon
DMS 114 small cell lung = tested on: DMS 114 small cell lung
NCI-H23 lung = tested on: NCI-H23 lung
UACC-257 melanoma = tested on: UACC-257 melanoma
TK-10 renal = tested on: TK-10 renal
HOP-92 NSCLC = tested on: HOP-92 NSCLC
HOP-62 NSCLC = tested on: HOP-62 NSCLC
RPMI-8226 leukemia = tested on: RPMI-8226 leukemia
HCT-116 colon = tested on: HCT-116 colon
SF-539 CNS = tested on: SF-539 CNS
LXFL 529 NSCLC = tested on: LXFL 529 NSCLC
OVCAR-4 ovarian = tested on: OVCAR-4 ovarian
MOLT-4 leukemia = tested on: MOLT-4 leukemia
A549 NSCLC = tested on: A549 NSCLC
XF 498 CNS = tested on: XF 498 CNS
KM20L2 colon = tested on: KM20L2 colon
RXF 393 renal = tested on: RXF 393 renal
LOX IMVI melanoma = tested on: LOX IMVI melanoma

CCCCC1CC(c2ccc(Cl)cc2)=NO1 (configuration not stated)
TGI (SN12C renal): > 100 µM
TGI (HL-60(TB) leukemia): > 100 µM
TGI (HCC-2998 colon): > 100 µM
TGI (SR leukemia): > 100 µM
TGI (786-0 renal): > 100 µM
TGI (MALME-3M melanoma): > 100 µM
TGI (K-562 leukemia): > 100 µM
TGI (DLD-1 colon): > 100 µM
TGI (SNB-75 CNS): > 100 µM
TGI (M14 melanoma): > 100 µM
TGI (ACHN renal): > 100 µM
TGI (IGROV1 ovarian): > 100 µM
TGI (SW-620 colon): > 100 µM
TGI (COLO 205 colon): > 100 µM
TGI (SF-268 CNS): > 100 µM
TGI (NCI-H522 lung): > 100 µM
TGI (OVCAR-5 ovarian): > 100 µM
TGI (A498 renal): > 100 µM
TGI (EKVX NSCLC): > 100 µM
TGI (CAKI-1 renal): > 100 µM
TGI (NCI-H460 lung): > 100 µM
TGI (OVCAR-3 ovarian): > 100 µM
TGI (CCRF-CEM leukemia): > 100 µM
TGI (DMS 273 small cell lung): > 100 µM
TGI (SK-MEL-2 melanoma): > 100 µM
TGI (SNB-78 CNS): > 100 µM
TGI (SK-MEL-5 melanoma): > 100 µM
TGI (HOP-18 NSCLC): > 100 µM
TGI (KM12 colon): > 100 µM
TGI (SF-295 CNS): > 100 µM
TGI (SNB-19 CNS): > 100 µM
TGI (NCI-H226 lung): > 100 µM
TGI (OVCAR-8 ovarian): > 100 µM
TGI (HCT-15 colon): > 100 µM
TGI (SK-OV-3 ovarian): > 100 µM
TGI (UACC-62 melanoma): > 100 µM
TGI (SK-MEL-28 melanoma): > 100 µM
TGI (U251 CNS): > 100 µM
TGI (UO-31 renal): > 100 µM
TGI (M19-MEL melanoma): > 100 µM
TGI (HT29 colon): > 100 µM
TGI (DMS 114 small cell lung): > 100 µM
TGI (NCI-H23 lung): > 100 µM
TGI (UACC-257 melanoma): > 100 µM
TGI (TK-10 renal): > 100 µM
TGI (HOP-92 NSCLC): > 100 µM
TGI (HOP-62 NSCLC): > 100 µM
TGI (RPMI-8226 leukemia): > 100 µM
TGI (HCT-116 colon): > 100 µM
TGI (SF-539 CNS): > 100 µM
TGI (LXFL 529 NSCLC): > 100 µM
TGI (OVCAR-4 ovarian): > 100 µM
TGI (MOLT-4 leukemia): > 100 µM
TGI (A549 NSCLC): > 100 µM

COc1ccc(/C=C/C(=O)C(C)(C)C)cc1OC
TGI (SN12C renal): > 100 µM
TGI (HCC-2998 colon): > 100 µM
TGI (K-562 leukemia): > 100 µM
TGI (DLD-1 colon): > 100 µM
TGI (SNB-75 CNS): > 100 µM
TGI (M14 melanoma): > 100 µM
TGI (ACHN renal): > 100 µM
TGI (IGROV1 ovarian): > 100 µM
TGI (SW-620 colon): > 100 µM
TGI (COLO 205 colon): > 100 µM
TGI (SF-268 CNS): > 100 µM
TGI (NCI-H522 lung): > 100 µM
TGI (OVCAR-5 ovarian): > 100 µM
TGI (A498 renal): > 100 µM
TGI (EKVX NSCLC): > 100 µM
TGI (CAKI-1 renal): > 100 µM
TGI (NCI-H460 lung): > 100 µM
TGI (OVCAR-3 ovarian): > 100 µM
TGI (CCRF-CEM leukemia): > 100 µM
TGI (SNB-78 CNS): > 100 µM
TGI (SK-MEL-5 melanoma): > 100 µM
TGI (KM12 colon): > 100 µM
TGI (SF-295 CNS): > 100 µM
TGI (SNB-19 CNS): > 100 µM
TGI (OVCAR-8 ovarian): > 100 µM
TGI (HCT-15 colon): > 100 µM
TGI (SK-OV-3 ovarian): > 100 µM
TGI (UACC-62 melanoma): > 100 µM
TGI (SK-MEL-28 melanoma): > 100 µM
TGI (U251 CNS): > 100 µM
TGI (UO-31 renal): > 100 µM
TGI (M19-MEL melanoma): > 100 µM
TGI (HT29 colon): > 100 µM
TGI (XF 498 CNS): > 100 µM
TGI (DMS 114 small cell lung): > 100 µM
TGI (NCI-H23 lung): > 100 µM
TGI (UACC-257 melanoma): > 100 µM
TGI (TK-10 renal): > 100 µM
TGI (HOP-62 NSCLC): > 100 µM
TGI (KM20L2 colon): > 100 µM
TGI (RPMI-8226 leukemia): > 100 µM
TGI (LXFL 529 NSCLC): > 100 µM
TGI (OVCAR-4 ovarian): > 100 µM
TGI (MOLT-4 leukemia): > 100 µM
TGI (A549 NSCLC): > 100 µM

CCOP(=S)(OCC)Oc1ccc2c(c1)OC(=O)C1(Cl)C2(C)C2(Cl)C(=O)Oc3cc(OP(=S)(OCC)OCC)ccc3C12C (configuration not stated)
TGI (SN12C renal): 39.3 µM
TGI (HL-60(TB) leukemia): 34.4 µM
TGI (HCC-2998 colon): 33.9 µM
TGI (786-0 renal): 44.9 µM
TGI (MALME-3M melanoma): 43.8 µM
TGI (K-562 leukemia): 77.3 µM
TGI (DLD-1 colon): 33.3 µM
TGI (SNB-75 CNS): 34.3 µM
TGI (RXF 393 renal): 25.8 µM
TGI (M14 melanoma): 33.7 µM
TGI (ACHN renal): 43.4 µM
TGI (IGROV1 ovarian): 38.7 µM
TGI (SW-620 colon): 33.3 µM
TGI (COLO 205 colon): 34.3 µM
TGI (SF-268 CNS): 21 µM
TGI (NCI-H522 lung): 22.3 µM
TGI (OVCAR-5 ovarian): 33.3 µM
TGI (A498 renal): 63.7 µM
TGI (EKVX NSCLC): 55.5 µM
TGI (CAKI-1 renal): 41.8 µM
TGI (NCI-H460 lung): 36.6 µM
TGI (OVCAR-3 ovarian): 28.1 µM
TGI (CCRF-CEM leukemia): 41.1 µM
TGI (DMS 273 small cell lung): 38.1 µM
TGI (SK-MEL-2 melanoma): 42.3 µM
TGI (SNB-78 CNS): 49.4 µM
TGI (SK-MEL-5 melanoma): 31.7 µM
TGI (KM12 colon): 30.7 µM
TGI (SF-295 CNS): 29.7 µM
TGI (SNB-19 CNS): 15.6 µM
TGI (NCI-H226 lung): 31.1 µM
TGI (OVCAR-8 ovarian): 37.2 µM
TGI (HCT-15 colon): 41.6 µM
TGI (LOX IMVI melanoma): 37.5 µM
TGI (UACC-62 melanoma): 26.6 µM
TGI (SK-MEL-28 melanoma): 31.1 µM
TGI (U251 CNS): 20 µM
TGI (UO-31 renal): 33.7 µM
TGI (M19-MEL melanoma): 33.9 µM
TGI (HT29 colon): 29.9 µM
TGI (XF 498 CNS): 36.2 µM
TGI (DMS 114 small cell lung): 30 µM
TGI (UACC-257 melanoma): 37.2 µM
TGI (TK-10 renal): 61.8 µM
TGI (HOP-62 NSCLC): 40.3 µM
TGI (KM20L2 colon): 33.4 µM
TGI (RPMI-8226 leukemia): 52.8 µM
TGI (HCT-116 colon): 25 µM
TGI (SF-539 CNS): 24.7 µM
TGI (LXFL 529 NSCLC): 21.1 µM
TGI (OVCAR-4 ovarian): 24.4 µM
TGI (MOLT-4 leukemia): 66.6 µM
TGI (A549 NSCLC): 74.1 µM
